How the values were obtained:
cytokine gene expression = settings: model of lupus nephritis; cited from earlier work
TIMP-1 = settings: rabbit articular chondrocytes; cited from earlier work
[1] = tested on: pro-MMPs-1, -3, -9 and -13; settings: rabbit articular chondrocytes; cited from earlier work
IL-1β and TNFα = settings: human osteoarthritic synovium and chondrocytes; cited from earlier work
[2] = tested on: LPS-induced TNFα secretion; test: LPS Mouse Assay, serum TNFα by ELISA; format: in vivo; settings: Balb C ByJ mice, 1 mg/kg LPS i.p., serum 2 hours after LPS
Method: (§1) 7 week old Balb C ByJ mice (24-28 g) were administered, either by oral (10 ml/kg) administration, with vehicle or test article. 30 minutes later, these animals were challenged with an intraperitoneal injection of 1 mg/kg LPS. 2 hours after LPS challenge, blood samples were collected under light isoflurane anaesthesia into normal tubes by retro-orbital puncture. Samples were allowed to clot at room temperature and then spun at 6000 g for 3 min at 4° C. Serum was stored at −20° C. until use. Serum TNFα and IL-10 levels were analysed in duplicate by ELISA technique.

[3] = tested on: intra-plantar carrageenan induced paw oedema; test: Carrageenan Paw Assay; format: in vivo; settings: 0.3 to 30 mg/kg oral gavage, male Wistar rats, paw measured 1-5 hours after carrageenan
Method: Fasted (18 hour) male Wistar rats (105-130 g) were weighed and a basal mercury plethysmometer reading was taken of the right hind paw by submerging the paw in the mercury up to the tibiotarsal joint. Subsequently, vehicles, reference items and test articles were administered by oral gavage (10 ml/kg). 30 minutes after treatment, 0.1 ml of 2% carrageenan in 0.9% saline was injected into the subplanatar area of the right hind paw. The right paw was measured again with the plethysmometer, at 1, 2, 3, 4 and 5 hours after carrageenan administration.

IL-1β = test: LPS Mouse Assay, IL-1β levels; format: in vivo; settings: 3, 10 and 30 mg/kg oral, Balb C ByJ mice, 1 mg/kg LPS i.p., serum 2 hours after LPS
Method: as §1

Structure (SMILES) | production of tissue inhibitor of metalloproteinases (TIMP-1) (TIMP-1) | production of pro-matrix metalloproteinases (pro-MMPs-1, -3, -9 and -13) [1] | effect on LPS-induced TNFα secretion ([2]; 30 mg/kg oral) | effect in carrageenan induced paw oedema model of inflammation [3] | further results
O=C(O)c1cc(O)c2c(c1)C(=O)c1cccc(O)c1C2=O [rhein, 1,8-dihydroxyanthraquinone-3-carboxylic acid] | upregulating | down-regulate | – | – | cytokine gene expression (cytokine gene expression): inhibit; production of pro-inflammatory cytokines (IL-1β and TNFα) (IL-1β and TNFα): inhibit
CCNC(=O)c1cc(OC(=O)C2CCOCC2)c2c(c1)C(=O)c1cccc(OC(=O)C3CCOCC3)c1C2=O [Example 2, 1,8-bis(tetrahydropyran-4-carbonyloxy)-3-ethylcarbamoyl-9,10-dioxo-9,10-dihydroanthracene] | – | – | – | – | effect on LPS-induced TNFα secretion ([2]; 10 mg/kg oral): inhibited
COCCOC(=O)c1cc(OC(=O)C2CCOCC2)c2c(c1)C(=O)c1cccc(OC(=O)C3CCOCC3)c1C2=O [Example 3, 4,5-bis(tetrahydropyran-4-carbonyloxy)-9,10-dioxo-9,10-dihydroanthracene-2-carboxylic acid, 2-methoxyethyl ester] | – | – | produced an effect | – | –
CCOC(=O)c1cc(OC(=O)C2CCOCC2)c2c(c1)C(=O)c1cccc(OC(=O)C3CCOCC3)c1C2=O [Example 4, 4,5-bis(tetrahydropyran-4-carbonyloxy)-9,10-dioxo-9,10-dihydroanthracene-2-carboxylic acid, ethyl ester] | – | – | – | dose-dependant effect | –
CC(=O)Oc1cccc2c1C(=O)c1c(OC(C)=O)cc(C(=O)O)cc1C2=O [diacerein] | upregulating | down-regulate | – | – | –
O=C1c2cccc(OC(=O)C3CCOCC3)c2C(=O)c2c(OC(=O)C3CCOCC3)cc(C(=O)N3CCOCC3)cc21 [Example 1, 1,8-bis(tetrahydropyran-4-carbonyloxy)-3-(morpholine-4-carbonyl)-9,10-dioxo-9,10-dihydroanthracene] | – | – | produced an effect | dose-dependant effect | IL-1β levels from LPS stimulus (IL-1β): reduced IL-1β levels

— patent US20080234258A1, “Dihydroxyanthraquinones and Their Use” (priority 2005, published 2008)
